US20230263822A1, “MODULATION OF FACTOR 11 EXPRESSION” (Ionis Pharmaceuticals, Inc., priority 2008, published 2023)
Strand notation (5' to 3'): a small letter for the sugar, then the base; units joined by * are phosphorothioate-linked, units joined directly phosphodiester-linked; [ ] holds rarer units or linkages, { } end groups; capitals alone tell only the bases. e = 2'-O-(2-methoxyethyl) (MOE); [5mC] = 5-methylcytosine; d = 2'-deoxy (DNA)

System: human Factor 11 mRNA
Assay: Antisense inhibition of human Factor 11 in HepG2 cells by microwalk gapmers, lipofectin, 75 nM (Example 3)
Type: cell-based
Protocol: These gapmers were designed by creating gapmers shifted slightly upstream and downstream (i.e. “microwalk”) of the original gapmers from Table 3. Gapmers were also created with various motifs, e.g. 5-10-5 MOE, 3-14-3 MOE, and 2-13-5 MOE. These gapmers were tested in vitro. Cultured HepG2 cells at a density of 10,000 cells per well were transfected using lipofectin reagent with 75 nM antisense oligonucleotide. After a treatment period of approximately 24 hours, RNA was isolated from the cells and Factor 11 mRNA levels were measured by quantitative real-time PCR. Factor 11 mRNA levels were adjusted according to total RNA content, as measured by RIBOGREEN. Results are presented as percent inhibition of Factor 11, relative to untreated control cells.
The chimeric antisense oligonucleotides in Table 4 were designed as 5-10-5 MOE, 3-14-3 MOE, and 2-13-5 MOE gapmers. The first listed gapmers in Table 4 are the original gapmers (see Table 3) from which the remaining gapmers were designed via microwalk and are designated by an asterisk. The 5-10-5 gapmers are 20 nucleotides in length, wherein the central gap segment is comprised of 10 2′-deoxynucleotides and is flanked on both sides (in the 5′ and 3′ directions) by wings comprising 5 nucleotides each. The 3-14-3 gapmers are 20 nucleotides in length, wherein the central gap segment is comprised of 14 2′-deoxynucleotides and is flanked on both sides (in the 5′ and 3′ directions) by wings comprising 3 nucleotides each. The 2-13-5 gapmers are 20 nucleotides in length, wherein the central gap segment is comprised of 13 2′-deoxynucleotides. The central gap is flanked on the 5′ end with a wing comprising 2 nucleotides and on the 3′ end with a wing comprising 5 nucleotides. For each of the motifs (5-10-5, 3-14-3, and 2-13-5), each nucleotide in the 5′ wing segment and each nucleotide in the 3′ wing segment has a 2′-MOE modification. The internucleoside linkages throughout each gapmer are phosphorothioate (P=S) linkages. All cytidine residues throughout each gapmer are 5-methyl cytidines. “Target start site” indicates the 5′-most nucleotide to which the gapmer is targeted. “Target stop site” indicates the 3′-most nucleotide to which the gapmer is targeted. Each gapmer listed in Table 4 is targeted to SEQ ID NO: 1 (GENBANK Accession No. NM_000128.3).

[1] = HepG2 cells, lipofectin, gapmers targeted to nucleobases 1275 to 1318 of SEQ ID NO: 1
[2] = HepG2, lipofectin, ~24 h, gapmers targeted to nucleobases 656 to 704 of SEQ ID NO: 1

| Substance | % inhibition [1] [%] | % inhibition [2] [%] |
| --- | --- | --- |
| 416920 (antisense eA*e[5mC]*eA*dG*dT*dT*dT*d[5mC]*dT*dG*dG*d[5mC]*dA*dG*dG*d[5mC]*d[5mC]*eT*e[5mC]*eG) [compound 416920] | 88 | – |
| 416921 (antisense e[5mC]*eA*e[5mC]*dA*dG*dT*dT*dT*d[5mC]*dT*dG*dG*d[5mC]*dA*dG*dG*d[5mC]*e[5mC]*eT*e[5mC]) [compound 416921] | 88 | – |
| 416927 (antisense eT*eT*eG*dG*dT*dG*d[5mC]*dA*d[5mC]*dA*dG*dT*dT*dT*d[5mC]*dT*dG*eG*e[5mC]*eA) [compound 416927] | 87 | – |
| 416928 (antisense eA*eT*eT*dG*dG*dT*dG*d[5mC]*dA*d[5mC]*dA*dG*dT*dT*dT*d[5mC]*dT*eG*eG*e[5mC]) [compound 416928] | 91 | – |
| 416929 (antisense e[5mC]*eA*eT*dT*dG*dG*dT*dG*d[5mC]*dA*d[5mC]*dA*dG*dT*dT*dT*d[5mC]*eT*eG*eG) [compound 416929] | 83 | – |
| 416930 (antisense eG*e[5mC]*eA*dT*dT*dG*dG*dT*dG*d[5mC]*dA*d[5mC]*dA*dG*dT*dT*dT*e[5mC]*eT*eG) [compound 416930] | 87 | – |
| 416932 (antisense e[5mC]*eG*eG*d[5mC]*dA*dT*dT*dG*dG*dT*dG*d[5mC]*dA*d[5mC]*dA*dG*dT*eT*eT*e[5mC]) [compound 416932] | 92 | – |
| 416933 (antisense eA*e[5mC]*eG*dG*d[5mC]*dA*dT*dT*dG*dG*dT*dG*d[5mC]*dA*d[5mC]*dA*dG*eT*eT*eT) [compound 416933] | 92 | – |
| 416934 (antisense eG*eA*e[5mC]*dG*dG*d[5mC]*dA*dT*dT*dG*dG*dT*dG*d[5mC]*dA*d[5mC]*dA*eG*eT*eT) [compound 416934] | 90 | – |
| 416935 (antisense eG*eG*eA*d[5mC]*dG*dG*d[5mC]*dA*dT*dT*dG*dG*dT*dG*d[5mC]*dA*d[5mC]*eA*eG*eT) [compound 416935] | 92 | – |
| 416936 (antisense e[5mC]*eG*eG*dA*d[5mC]*dG*dG*d[5mC]*dA*dT*dT*dG*dG*dT*dG*d[5mC]*dA*e[5mC]*eA*eG) [compound 416936] | 89 | – |
| 416937 (antisense eG*e[5mC]*eG*dG*dA*d[5mC]*dG*dG*d[5mC]*dA*dT*dT*dG*dG*dT*dG*d[5mC]*eA*e[5mC]*eA) [compound 416937] | 93 | – |
| 416938 (antisense eA*eG*e[5mC]*dG*dG*dA*d[5mC]*dG*dG*d[5mC]*dA*dT*dT*dG*dG*dT*dG*e[5mC]*eA*e[5mC]) [compound 416938] | 90 | – |
| 416939 (antisense e[5mC]*eA*eG*d[5mC]*dG*dG*dA*d[5mC]*dG*dG*d[5mC]*dA*dT*dT*dG*dG*dT*eG*e[5mC]*eA) [compound 416939] | 88 | – |
| 416940 (antisense eG*e[5mC]*eA*dG*d[5mC]*dG*dG*dA*d[5mC]*dG*dG*d[5mC]*dA*dT*dT*dG*dG*eT*eG*e[5mC]) [compound 416940] | 92 | – |
| 416942 (antisense eT*eG*eG*d[5mC]*dA*dG*d[5mC]*dG*dG*dA*d[5mC]*dG*dG*d[5mC]*dA*dT*dT*eG*eG*eT) [compound 416942] | 85 | – |
| 416943 (antisense e[5mC]*eT*eG*dG*d[5mC]*dA*dG*d[5mC]*dG*dG*dA*d[5mC]*dG*dG*d[5mC]*dA*dT*eT*eG*eG) [compound 416943] | 92 | – |
| 416944 (antisense eA*e[5mC]*eT*dG*dG*d[5mC]*dA*dG*d[5mC]*dG*dG*dA*d[5mC]*dG*dG*d[5mC]*dA*eT*eT*eG) [compound 416944] | 83 | – |
| 416946 (antisense eA*eA*dA*dT*dG*dT*d[5mC]*dT*dT*dT*dG*dT*dT*dG*d[5mC]*eA*eA*eG*e[5mC]*eG) [compound 416946] | – | 86 |
| 416947 (antisense eT*eA*dA*dA*dT*dG*dT*d[5mC]*dT*dT*dT*dG*dT*dT*dG*e[5mC]*eA*eA*eG*e[5mC]) [compound 416947] | – | 62 |
